Test results as given in article PMC6383929, “Design, antimicrobial activity and mechanism of action of Arg-rich ultra-short cationic lipopeptides” (PLoS ONE, 2019).
In brackets after ≈: the same amount, converted by molar mass. Read-outs that look alike come from different tables or passages of the source. Where a SMILES comes first, the peptide text is derived from it. The star is where a group is joined. Myristoyl = CCCCCCCCCCCCCC(=O)*; Lauroyl = CCCCCCCCCCCC(=O)*; Decanoyl = CCCCCCCCCC(=O)*; Octanoyl = CCCCCCCC(=O)*; Hexanoyl = CCCCCC(=O)*

Key:
S. aureus ATCC 25923 = type: cell-based, Staphylococcus aureus
From the text: (§1) Bacteria used in this study were Escherichia coli ATCC 25922 and O18K1H7, Staphylococcus aureus ATCC 25923 and ATCC 29213, Pseudomonas aeruginosa ATCC 27853, Staphylococcus epidermidis ATCC 12228, Enterococcus faecalis ATCC 29212, Bacillus subtilis DSM 4181, Listeria monocytogenes DSM 20600, Salmonella typhimurium ATCC 14028, Acinetobacter baumannii ATCC 19606 and 17978, Klebsiella pneumoniae ATCC 13883 and 700603, Stenotrophomonas maltophilia ATCC 13637 and Burkholderia cenocepacia J2315. In addition to reference strains, a clinical isolate of E. faecalis vancomycin-resistant (VREF, strain M), and three clinical isolates of S. aureus methicillin-resistant (MRSA, strains E, G and 11), kindly provided by Dr. Lucilla Dolzani, were used. All MRSA strains are resistant to GEN, IPM, OXA, PEN, CIP and CEF; the S. aureus E strain is also resistant to CLI and ERY. VREF strain is resistant to AMK, ATM, GEN, NET, PEN, TEC, TET, TOB and VAN.
(§2) For the assays, overnight bacterial cultures were diluted 1:30 in fresh Mueller-Hinton Broth (MHB, Difco) and incubated at 37°C with shaking for approximately 2h.
(§3) The antimicrobial activity of USCLs was determined by the Minimum Inhibitory Concentration (MIC) assay, according to the guidelines of CLSI (Clinical & Laboratory Standards Institute) and described in [30, 31]. Briefly, the assays were performed in 96-well microplates in appropriate broth (MHB or SAB). […] For bacteria, a mid-log phase bacterial suspension at 2.5 × 10^5 CFU/mL in MHB was used, and the microplates incubated at 37°C for 24h. The fungal suspension in SAB broth was used at a final concentration of 5 × 10^4 cells/mL. Microplates were then incubated at 30°C for 48h. The MIC value was taken as the lowest concentration of USCLs resulting in the complete inhibition of visible bacterial or fungal growth after appropriate incubation time. Results derive from at least three independent experiments carried out in duplicate.

E. coli ATCC 25922 = type: cell-based, Escherichia coli
From the text: as §1, §2, §3

[1] = RP-HPLC retention time (hydrophobicity); type: physicochemical; details: stated to reliably reflect the hydrophobicity in aqueous solution, assessed and provided by GenScript
Protocol: GenScript (Piscataway, NJ, USA) carried out the custom synthesis of USCLs by using high efficient solid phase peptide synthesis. The fatty acid was conjugated to the N-terminus of the peptide using the same procedure followed to attach protected amino acids to the growing peptide chain for synthesis. The purity (>90%), sequence and molecular weight of USCLs were assessed and provided by GenScript using RP-HPLC and ESI-MS. USCLs were dissolved in sterile water or DMSO at 10 mg/mL, according to manufacturer's indications.

P. aeruginosa ATCC 27853 = type: cell-based, Pseudomonas aeruginosa
From the text: as §1, §2, §3

[2] = tested on: S. aureus G (MRSA clinical isolate); type: cell-based, Staphylococcus aureus; details: G ( clinical isolate, 24 h)
From the text: as §1, §2, §3

[3] = tested on: S. aureus E (MRSA clinical isolate); type: cell-based, Staphylococcus aureus; details: E ( clinical isolate, 24 h)
From the text: as §1, §2, §3

[4] = tested on: S. aureus 11 (MRSA clinical isolate); type: cell-based, Staphylococcus aureus; details: 11 ( clinical isolate, 24 h)
From the text: as §1, §2, §3

[5] = tested on: S. typhimurium ATCC 14028; type: cell-based, Salmonella typhimurium; details: ATCC 14028, 24 h
From the text: as §1, §2, §3

B. subtilis DSM 4181 = type: cell-based, Bacillus subtilis; details: DSM 4181, 24 h
From the text: as §1, §2, §3

E. coli O18K1H7 = type: cell-based, Escherichia coli; details: O18K1H7, 24 h
From the text: as §1, §2, §3

[6] = tested on: K. pneumoniae ATCC 700603; type: cell-based, Klebsiella pneumoniae; details: ATCC 700603, 24 h
From the text: as §1, §2, §3

K. pneumoniae ATCC 13883 = type: cell-based, Klebsiella pneumoniae; details: ATCC 13883, 24 h
From the text: as §1, §2, §3

[7] = tested on: E. faecalis M (VREF clinical isolate); type: cell-based, Enterococcus faecalis; details: M (VREF clinical isolate, 24 h)
From the text: as §1, §2, §3

E. faecalis ATCC 29212 = type: cell-based, Enterococcus faecalis; details: ATCC 29212, 24 h
From the text: as §1, §2, §3

C. albicans SC 5314 = type: cell-based, Candida albicans; details: SC 5314, 48 h
Protocol: (§4) Fungal strains used were Candida albicans ATCC 90029 and SC5314. Fungi were grown on Sabouraud dextrose (SAB, Difco) agar plates at 30°C for 48h. The initial fungal inoculum was prepared by picking and suspending five colonies in 5 mL of sterile PBS.
as §3

C. albicans ATCC 90029 = type: cell-based, Candida albicans; details: ATCC 90029, 48 h
Protocol: as §4, §3

[8] = tested on: S. maltophilia ATCC 13637; type: cell-based, Stenotrophomonas maltophilia; details: ATCC 13637, 48 h
From the text: as §1, §2
as §3, with “For bacteria, a mid-log phase bacterial suspension at 2.5 × 10^5 CFU/mL in MHB was used, and the microplates incubated at 37°C for 24h.” left out

B. cenocepacia J2315 = type: cell-based, Burkholderia cenocepacia; details: 48 h
From the text: as §1, §2
as §3, with “For bacteria, a mid-log phase bacterial suspension at 2.5 × 10^5 CFU/mL in MHB was used, and the microplates incubated at 37°C for 24h.” left out

[9] = MHB, 2.5 × 10^5 CFU/mL, 24h at 37°C, at least three independent experiments in duplicate

Row | Compound | MIC (S. aureus ATCC 25923; ATCC 25923, 24 h) | MIC (E. coli ATCC 25922; ATCC 25922, 24 h) | Retention time [1] | MIC (P. aeruginosa ATCC 27853; ATCC 27853, 24 h) | further results
1 | CCCCCCCCCCCC(=O)N[C@@H](CCCNC(=N)N)C(=O)N[C@H](C(=O)N[C@@H](Cc1c[nH]c2ccccc12)C(=O)N[C@@H](CCCNC(=N)N)C(N)=O)C(C)C [Lp-V, Lau-RVWR-NH2] (Lauroyl-RVWR-NH2) | 6.25 (6.25) μg/mL | 12.5 (12.5) μg/mL | 19.317 min | – | –
2 | CCCCCCCC(=O)N[C@@H](CCCNC(=N)N)C(=O)N[C@@H](Cc1ccccc1)C(=O)N[C@@H](Cc1c[nH]c2ccccc12)C(=O)N[C@@H](CCCNC(=N)N)C(N)=O [Lp-F^Oct, Oct-RFWR-NH2] (Octanoyl-RFWR-NH2) | 100 µg/mL (≈ 127 µM) | – | 17.974 min | 100 µg/mL (≈ 127 µM) | –
3 | CCCCCCCCCCCC(=O)N[C@@H](CCCNC(=N)N)C(=O)N[C@@H](CS)C(=O)N[C@@H](Cc1c[nH]c2ccccc12)C(=O)N[C@@H](CCCNC(=N)N)C(N)=O [Lp-C, Lau-RCWR-NH2] (Lauroyl-RCWR-NH2) | 50 µg/mL (≈ 62.4 µM) | 200 µg/mL (≈ 250 µM) | 22.492 min | 200 µg/mL (≈ 250 µM) | –
4 | CCCCCCCCCCCC(=O)N[C@@H](CCCNC(=N)N)C(=O)N[C@@H](Cc1c[nH]cn1)C(=O)N[C@@H](Cc1c[nH]c2ccccc12)C(=O)N[C@@H](CCCNC(=N)N)C(N)=O [Lp-H, Lau-RHWR-NH2] (Lauroyl-RHWR-NH2) | 6.25 µg/mL (≈ 7.48 µM) | 25 µg/mL (≈ 29.9 µM) | 21.476 min | 100 µg/mL (≈ 120 µM) | –
5 | Lau-RFWR-NH2 [Lp-F^Lau] | – | – | 23.592 min | – | –
6 | CCCCCCCCCCCCCC(=O)N[C@@H](CCCNC(=N)N)C(=O)N[C@@H](Cc1ccccc1)C(=O)N[C@@H](Cc1c[nH]c2ccccc12)C(=O)N[C@@H](CCCNC(=N)N)C(N)=O [Lp-F^Myr, Myr-RFWR-NH2] (Myristoyl-RFWR-NH2) | 6.25 µg/mL (≈ 7.16 µM) | – | 26.654 min | 50 µg/mL (≈ 57.3 µM) | –
7 | CCCCCCCCCCCC(=O)N[C@@H](CCCNC(=N)N)C(=O)N[C@@H](C)C(=O)N[C@@H](Cc1c[nH]c2ccccc12)C(=O)N[C@@H](CCCNC(=N)N)C(N)=O [Lp-A, Lau-RAWR-NH2] (Lauroyl-RAWR-NH2) | 6.25 µg/mL (≈ 8.13 µM) | – | 18.931 min | 25 µg/mL (≈ 32.5 µM) | –
8 | CCCCCCCCCCCC(=O)N[C@@H](CCCNC(=N)N)C(=O)NCC(=O)N[C@@H](Cc1c[nH]c2ccccc12)C(=O)N[C@@H](CCCNC(=N)N)C(N)=O [Lp-G, Lau-RGWR-NH2] (Lauroyl-RGWR-NH2) | 6.25 µg/mL (≈ 8.28 µM) | 25 µg/mL (≈ 33.1 µM) | 18.415 min | 50 µg/mL (≈ 66.2 µM) | –
9 | CCCCCCCCCCCC(=O)N[C@@H](CCCNC(=N)N)C(=O)N[C@@H](CO)C(=O)N[C@@H](Cc1c[nH]c2ccccc12)C(=O)N[C@@H](CCCNC(=N)N)C(N)=O [Lp-S, Lau-RSWR-NH2] (Lauroyl-RSWR-NH2) | 6.25 µg/mL (≈ 7.96 µM) | 25 µg/mL (≈ 31.8 µM) | 16.117 min | 25 µg/mL (≈ 31.8 µM) | –
10 | CCCCCC(=O)N[C@@H](CCCNC(=N)N)C(=O)N[C@@H](Cc1ccccc1)C(=O)N[C@@H](Cc1c[nH]c2ccccc12)C(=O)N[C@@H](CCCNC(=N)N)C(N)=O [Lp-F^Hex, Hex-RFWR-NH2] (Hexanoyl-RFWR-NH2) | – | – | 18.675 min | – | MIC (S. aureus ATCC 25923; MHB, 2.5 × 10^5 CFU/mL, 24h at 37°C, at least three independent experiments in duplicate, two values when replicates differed by one well): >400 µg/mL; MIC (P. aeruginosa ATCC 27853; [9]): >400 µg/mL; MIC (E. coli ATCC 25922; [9]): >400 µg/mL
11 | CCCCCCCCCCCC(=O)N[C@@H](CCCNC(=N)N)C(=O)N[C@@H](CC(C)C)C(=O)N[C@@H](Cc1c[nH]c2ccccc12)C(=O)N[C@@H](CCCNC(=N)N)C(N)=O [Lp-L, Lau-RLWR-NH2] (Lauroyl-RLWR-NH2) | – | 25 µg/mL (≈ 30.8 µM) | 23.079 min | 25 µg/mL (≈ 30.8 µM) | –
12 | CCCCCCCCCCCC(=O)N[C@@H](CCCNC(=N)N)C(=O)N[C@@H](CCCNC(=N)N)C(=O)N[C@@H](Cc1c[nH]c2ccccc12)C(=O)N[C@@H](CCCNC(=N)N)C(N)=O [Lp-R, Lau-RRWR-NH2] (Lauroyl-RRWR-NH2) | 3.125 µg/mL (≈ 3.66 µM) | 12.5 µg/mL (≈ 14.6 µM) | 21.651 min | 25 µg/mL (≈ 29.3 µM) | MIC [2]: 3.125 µg/mL (≈ 3.66 µM); MIC [3]: 3.125 µg/mL (≈ 3.66 µM); MIC [4]: 3.125 µg/mL (≈ 3.66 µM); MIC [5]: 100 µg/mL (≈ 117 µM); MIC (B. subtilis DSM 4181): 1.56 µg/mL (≈ 1.83 µM); MIC (E. coli O18K1H7): 25 µg/mL (≈ 29.3 µM); MIC [6]: 100 µg/mL (≈ 117 µM); MIC (K. pneumoniae ATCC 13883): >100 µg/mL; MIC [7]: 12.5 µg/mL (≈ 14.6 µM); MIC (E. faecalis ATCC 29212): 6.25 µg/mL (≈ 7.32 µM); MIC (C. albicans SC 5314): 50 µg/mL (≈ 58.5 µM); MIC (C. albicans ATCC 90029): 1.56 µg/mL (≈ 1.83 µM); MIC [8]: 12.5 µg/mL (≈ 14.6 µM); MIC (B. cenocepacia J2315): 50 µg/mL (≈ 58.5 µM)
13 | CCCCCCCCCC(=O)N[C@@H](CCCNC(=N)N)C(=O)N[C@@H](Cc1ccccc1)C(=O)N[C@@H](Cc1c[nH]c2ccccc12)C(=O)N[C@@H](CCCNC(=N)N)C(N)=O [Lp-F^Dec, Dec-RFWR-NH2] (Decanoyl-RFWR-NH2) | – | 25 µg/mL (≈ 30.6 µM) | 22.639 min | 50 µg/mL (≈ 61.2 µM) | –
